{"source": "patent US20250327032A1", "about": "“AGENT FOR AVOIDING IMMUNE RESPONSE OF TRANSGENIC CELLS” (HYPERION DRUG DISCOVERY CO., LTD., priority 2021, published 2025)", "format_in_all_cases": "cell-based", "key": {"[1]": {"tested_on": "human myoblasts", "test": "Introduction of GFP viral vector (polybrene method), yield of GFP-positive cells", "details": "JSH-23 0.1 μM; GFP viral vector MOI 10, polybrene 5 μg/mL", "protocol": "Human mesenchymal stem cells were seeded in a 6-well plate to be about 2,000 cells/cm^2. Human myoblasts were seeded in another 6-well plate to be about 2,000 cells/cm^2. As a culture solution, a basal medium for each cell supplemented with JSH-23 was used. JSH-23 was added at 1 μM to the culture solution used for human mesenchymal stem cells, and at 0.1 μM to the culture solution used for human myoblasts. As a control, a basal medium, i.e., αMEM (+10% serum) for human mesenchymal stem cells and MCDB131 (+10% serum) for human myoblasts, to which 0.1% (v/v) DMSO instead of JSH-23 was added was used as a culture solution.\nA mixed solution was prepared by mixing GFP viral vector and a polybrene solution. […]\nNext, the above mixed solution was added to the plate seeded with human mesenchymal stem cells or human myoblasts, and cultured in a CO2 incubator at 37° C. for 24 hours.\nFour days after the addition of the virus-free culture solution, the cells were detached with a cell detachment solution and centrifuged at 600×g for 5 minutes using a centrifuge, to collect the cells. The collected cells were counted using a hemocytometer. Furthermore, the GFP-positive percentage of the collected cells was measured using a flow cytometer. The yield of the number of GFP-positive cells was calculated from the number of cells counted and the GFP-positive percentage. […]"}, "[2]": {"tested_on": "human mesenchymal stem cells", "test": "Introduction of GFP mRNA by lipofection, yield of GFP-positive cells", "details": "10 pg/cell", "protocol": "(§1) Human mesenchymal stem cells were seeded in a 6-well plate to be about 10,000 cells/cm^2. Human myoblasts were seeded in another 6-well plate to be about 20,000 cells/cm^2. As a culture solution, a basal medium for each cell supplemented with 0.1, 1, or 10 μM of JSH-23 was used. As a control, a basal medium for each cell supplemented with 0.1% (v/v) DMSO instead of JSH-23 was used as a culture solution.\n(§2) A lipofection solution was prepared by adding Lipofectamine RNAiMAX and fluorescent protein GFP mRNA to OptiMEM. As the GFP mRNA, that containing uridine or that containing pseudouridine instead of uridine was used. In addition, for those containing pseudouridine, a basal medium for each cell supplemented with 1 μM of JSH-23 was used, and as a control, a basal medium for each cell supplemented with 0.1% (v/v) DMSO instead of JSH-23 was used as a culture solution. It was prepared so that the amount of mRNA was 10 pg/cell for human mesenchymal stem cells and 5 pg/cell for human myoblasts. The prepared lipofection solution was mixed well according to the manufacturer's recommended protocol and allowed to stand at room temperature for about 15 minutes.\n(§3) Next, each lipofection solution was added to the plate seeded with human mesenchymal stem cells or human myoblasts, and cultured in a CO2 incubator at 37° C. for about 1 day (18 hours) (human mesenchymal stem cells) or for 2 days (42 hours) (human myoblasts). After culturing, all the culture solution comprising the lipofection solution was removed and replaced with a new culture solution having the same composition as before the addition of the lipofection solution.\n(§4) After another 6 hours, the above lipofection solution was newly prepared, added again to the plate seeded with human mesenchymal stem cells or human myoblasts, and cultured in a CO2 incubator at 37° C. for about 1 day (18 hours) (mesenchymal stem cells) or about 2 days (42 hours) (human myoblasts). These steps were repeated so that the introduction of genes was performed a total of 4 times.\n(§5) Twenty-four hours after the final introduction of genes, the cells were detached with a cell detachment solution, centrifuged at 600×g for 5 minutes using a centrifuge, to collect the cells. The collected cells were counted using a hemocytometer. Furthermore, the GFP-positive percentage of the collected cells was measured using a flow cytometer. The yield of the number of GFP-positive cells was calculated from the number of cells counted and the GFP-positive rate.\nas §1, with “1” for “0.1, 1, or 10”, “calcitriol” for “JSH-23”\n(§6) A lipofection solution was prepared by adding Lipofectamine RNAiMAX and fluorescent protein GFP mRNA to OptiMEM. As the GFP mRNA, that containing uridine, or that containing pseudouridine instead of uridine was used. It was prepared so that the amount of mRNA was 10 pg/cell for human mesenchymal stem cells and 5 pg/cell for human myoblasts. The prepared lipofection solution was mixed well according to the manufacturer's recommended protocol and allowed to stand at room temperature for about 15 minutes."}, "[3]": {"tested_on": "human myoblasts", "test": "Introduction of GFP mRNA by lipofection, yield of GFP-positive cells", "details": "5 pg/cell", "protocol": "as §1, §2, §3, §4, §5\nas §1, with “1” for “0.1, 1, or 10”, “calcitriol” for “JSH-23”\nas §6"}, "[4]": {"tested_on": "human mesenchymal stem cells", "test": "Introduction of TERT plasmid by lipofection, number of viable cells", "details": "JSH-23 1 μM; TERT plasmid DNA 10 pg/cell", "protocol": "Human mesenchymal stem cells were seeded in a 6-well plate to be about 10,000 cells/cm^2. As a culture solution, αMEM (+10% serum) supplemented with 1 μM of JSH-23 was used. As a control, αMEM (+10% serum) supplemented with 0.1% (v/v) DMSO instead of JSH-23 was used as a culture solution.\nA lipofection solution was prepared by adding Lipofectamine RNAiMAX and TERT plasmid DNA to OptiMEM. The amount of plasmid DNA was prepared to be 10 pg/cell.\nas §3, with “the” for “each”, “cells,” for “cells or human myoblasts,”, “18 hours.” for “about 1 day (18 hours) (human mesenchymal stem cells) or for 2 days (42 hours) (human myoblasts).”\nAfter another 6 hours, the above lipofection solution was newly prepared, added again to the plate seeded with human mesenchymal stem cells, and cultured in a CO2 incubator at 37° C. for 18 hours. These steps were repeated so that the introduction of genes was performed a total of 4 times.\nTwenty-four hours after the final introduction of genes, the cells were detached with a cell detachment solution, centrifuged at 600×g for 5 minutes using a centrifuge, to collect the cells. The collected cells were counted using a hemocytometer."}, "[5]": {"details": "GFP mRNA containing pseudouridine instead of uridine, JSH-23 1 μM"}}, "data": [{"smiles": "Cc1ccc(NCCCc2ccccc2)c(N)c1", "note": "[JSH-23]", "values": [{"measurement": "number of GFP-positive cells relative to control", "setting": "[1]", "result": "increased"}, {"measurement": "yield of GFP-positive cells compared to the control (control set to 1)", "setting": "[2]; [5]", "result": "≥ 7", "unit": "times"}, {"measurement": "yield of GFP-positive cells compared to the control (control set to 1)", "setting": "[2]; GFP mRNA containing uridine, 4 introductions, JSH-23 0.1, 1 or 10 μM, maximal at 1 μM, control 0.1% DMSO", "result": "≥ 7", "unit": "times"}, {"measurement": "yield of GFP-positive cells compared to the control (control set to 1)", "setting": "[3]; [5]", "result": "≥ 2", "unit": "times"}, {"measurement": "yield of GFP-positive cells compared to the control (control set to 1)", "setting": "[3]; GFP mRNA containing uridine, JSH-23 0.1, 1 or 10 μM", "result": "≥ 3", "unit": "times"}, {"measurement": "number of viable cells compared to the control (control set to 1)", "setting": "[4]", "result": "≥ 1.4", "unit": "times"}]}]}
